Values joined by “and” are separate entries in the source; they are usually repeats but may differ in a detail not shown here. Identical values can stand only once.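 Five compound concentrations were applied to cells in 96-well plates for 48 hours; endpoints were derived by simple linear interpolation of the resulting dose-response curve. GI50 marks 50% less growth. The concentration for full growth arrest is given as TGI.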

Among the test systems are HCT-116 colon; HL-60(TB) leukemia; LOX IMVI melanoma; MCF7 breast; MDA-MB-435; NCI-H23 lung; OVCAR-5 ovarian; SF-268 CNS; SF-539 CNS; U251 CNS.
What all share (experiment): NCI anticancer screen, dose series, 48 h

For the compound `COc1ccc(-c2cc3cccc(OC)c3c(=O)o2)cc1OC`, the GI50 in the assay with HCT-116 colon is 29.6 µM; in the assay with HL-60(TB) leukemia, 76.2 µM; in the assay on LOX IMVI melanoma, 11.5 µM; with MCF7 breast, 32 µM; with MDA-MB-435, 3.22 µM; with NCI-H23 lung, 47.9 µM. Further, the GI50 in the assay on OVCAR-5 ovarian was 85.5 µM; with SF-268 CNS, 39.7 µM; with SF-539 CNS, 0.559 µM; with U251 CNS it was 12.4 µM. Moreover, the TGI in the assay on HCT-116 colon, in the assay with HL-60(TB) leukemia, with LOX IMVI melanoma, in the assay with MCF7 breast, in the assay with MDA-MB-435 and in the assay on NCI-H23 lung was greater than 100 µM throughout. Further, the TGI was greater than 100 µM in the assay on OVCAR-5 ovarian, greater than 100 µM in the assay on SF-268 CNS, 22.9 µM with SF-539 CNS and greater than 100 µM with U251 CNS.

As to `CS(=O)(=O)c1nccc(-c2c(-c3cccc(OCc4ccc(F)cc4)c3)nc3sccn23)n1`, the GI50 with HCT-116 colon is 5.65 µM; in the assay on HL-60(TB) leukemia it was 3.43 µM; with LOX IMVI melanoma, 4.7 µM; in the assay on MCF7 breast it was 8.31 µM; in the assay with MDA-MB-435, 30.3 µM; with NCI-H23 lung it was 11.7 µM. The GI50 was greater than 100 µM with OVCAR-5 ovarian, 40.1 µM with SF-268 CNS, greater than 94 µM in the assay with SF-539 CNS and 33.1 µM in the assay on U251 CNS. Besides, the TGI in the assay with HCT-116 colon is greater than 100 µM; in the assay on HL-60(TB) leukemia, greater than 29.3 µM; in the assay on LOX IMVI melanoma it was greater than 100 µM; with MCF7 breast it was greater than 100 µM; in the assay with MDA-MB-435, greater than 100 µM; with NCI-H23 lung, greater than 100 µM. Also, the TGI in the assay on OVCAR-5 ovarian, in the assay on SF-268 CNS, with SF-539 CNS and with U251 CNS was greater than 100 µM throughout.

`COC1/C=C/O[C@@]2(C)Oc3c(C)c(O)c4c(O)c(cc(O)c4c3C2=O)NC(=O)/C(C)=C\C=C\[C@H](C)C(O)[C@@H](C)[C@@H](O)[C@@H](C)[C@H](OC(C)=O)[C@@H]1C` (stereo not given in full): the GI50 is 12.2 µM and 12.5 µM in the assay on HCT-116 colon; 6.07 µM and 5.19 µM with HL-60(TB) leukemia; 17.3 µM with MCF7 breast; 17.2 µM in the assay on MDA-MB-435; 18.3 µM in the assay with SF-268 CNS; 3.41 µM in the assay with SF-539 CNS. For the same compound, the GI50 in the assay with U251 CNS was 16.5 µM. In addition, the TGI with HCT-116 colon was 25.4 µM and 26.1 µM; in the assay on HL-60(TB) leukemia, 27.4 µM and 18 µM; with LOX IMVI melanoma it was 26.1 µM and 29.5 µM; with MCF7 breast it was 32.3 µM and 29.7 µM; in the assay with MDA-MB-435, 31.6 µM and 40.4 µM; with NCI-H23 lung, 33.8 µM. The TGI in the assay on OVCAR-5 ovarian is 80.1 µM; in the assay with SF-268 CNS it was 33.4 µM and 61.7 µM; with SF-539 CNS, 12.5 µM and 69.3 µM; in the assay on U251 CNS it was 30.1 µM and 116 µM.

As to `CCC(=O)Sc1ccccc1C(=O)Nc1ccc(Cl)cc1`, the GI50 with HCT-116 colon was 3.58 µM; with HL-60(TB) leukemia it was 3.65 µM; in the assay with LOX IMVI melanoma, 5.91 µM; in the assay on MCF7 breast it was 3.86 µM; with MDA-MB-435, 6.92 µM; in the assay with NCI-H23 lung it was 6.43 µM. Also, the GI50 with OVCAR-5 ovarian was 15.9 µM; in the assay on SF-268 CNS it was 9.67 µM; in the assay with SF-539 CNS it was 11.2 µM; in the assay with U251 CNS it was 5.73 µM. In addition, the TGI in the assay on HCT-116 colon is 13.1 µM; in the assay with HL-60(TB) leukemia, 19.8 µM; with LOX IMVI melanoma, 24.4 µM; in the assay on MCF7 breast, 36.2 µM; in the assay with MDA-MB-435, 39.9 µM; in the assay on NCI-H23 lung, 39.2 µM. Besides, the TGI was 33.2 µM in the assay with OVCAR-5 ovarian, 52.9 µM in the assay on SF-268 CNS, 30.5 µM with SF-539 CNS and 32.3 µM in the assay with U251 CNS.

`Cn1cc(-c2cc3c(Nc4ccc(CC(=O)Nc5cc(C(C)(C)C)on5)cc4)ncnc3[nH]2)cn1`: the GI50 is 0.68 µM and 0.337 µM in the assay on HCT-116 colon; 1.98 µM and 1.58 µM in the assay on HL-60(TB) leukemia; 0.87 µM and 0.548 µM in the assay with LOX IMVI melanoma; 0.352 µM and 0.259 µM with MCF7 breast; 0.845 µM and 0.944 µM in the assay on MDA-MB-435; 0.811 µM and 0.449 µM in the assay on NCI-H23 lung. Moreover, the GI50 was 1.3 µM and 1.08 µM in the assay on OVCAR-5 ovarian; 0.444 µM and 0.348 µM in the assay on SF-268 CNS; 0.425 µM and 0.265 µM in the assay with SF-539 CNS; 0.586 µM and 0.38 µM in the assay on U251 CNS. Further, the TGI in the assay with HCT-116 colon was 4.86 µM and 1.99 µM; in the assay with HL-60(TB) leukemia, 6.63 µM and 5.47 µM; in the assay on LOX IMVI melanoma, 6.31 µM and 3.63 µM; in the assay on MCF7 breast, 10.3 µM and 4.01 µM; in the assay on MDA-MB-435, 2.95 µM and 4.29 µM; in the assay on NCI-H23 lung, 3.49 µM and 2.51 µM. Further, the TGI was 7.18 µM and 6.62 µM in the assay on OVCAR-5 ovarian; 1.67 µM and 1.18 µM in the assay on SF-268 CNS; 1.7 µM and 1.63 µM with SF-539 CNS; 5.84 µM and 6.41 µM with U251 CNS.

As for `Cn1ncc2cc(-c3cnc(N)c(Cl)c3N3CCC4(CCNC4=O)CC3)ccc21`, the GI50 in the assay with HCT-116 colon is 37.4 µM; in the assay on HL-60(TB) leukemia, 16.8 µM; in the assay with LOX IMVI melanoma, 33.1 µM; with MCF7 breast it was 24.6 µM; in the assay on MDA-MB-435 it was 45.4 µM; in the assay with NCI-H23 lung, 46.7 µM. The GI50 with OVCAR-5 ovarian is greater than 100 µM; in the assay on SF-268 CNS, 21.3 µM; in the assay on SF-539 CNS, 14.1 µM; in the assay with U251 CNS, 43.7 µM. In addition, the TGI in the assay on HCT-116 colon is greater than 100 µM; with HL-60(TB) leukemia it was 42.6 µM; with LOX IMVI melanoma it was greater than 100 µM; with MCF7 breast it was greater than 100 µM; with MDA-MB-435, greater than 100 µM; in the assay with NCI-H23 lung, greater than 100 µM. Also, the TGI in the assay on OVCAR-5 ovarian, in the assay on SF-268 CNS, in the assay with SF-539 CNS and in the assay with U251 CNS was greater than 100 µM throughout.

As for `O=C1c2ccn(CCCCN3CCOCC3)c2C(=O)c2c1c(O)c1ccccc1c2O`, the GI50 is 7.03 µM with HCT-116 colon; 9.07 µM with HL-60(TB) leukemia; 3.58 µM in the assay on LOX IMVI melanoma; 6.26 µM in the assay on MCF7 breast; 2.13 µM with MDA-MB-435; 11.4 µM with NCI-H23 lung. Moreover, the GI50 with OVCAR-5 ovarian was 11.1 µM; in the assay on SF-268 CNS it was 9.44 µM; with U251 CNS it was 10.9 µM. In addition, the TGI in the assay on HCT-116 colon was determined as 19.9 µM; in the assay with HL-60(TB) leukemia it was 59.9 µM; in the assay on LOX IMVI melanoma it was 23.1 µM; with MCF7 breast it was 24.8 µM; in the assay on MDA-MB-435, 4.62 µM; in the assay with NCI-H23 lung, 23.6 µM. Also, the TGI in the assay with OVCAR-5 ovarian stood at 23.8 µM; in the assay with SF-268 CNS, 30.9 µM; in the assay on U251 CNS it was 31.8 µM.

For the compound `CCOC(=O)C1NCCc2c1[nH]c1ccccc21` (stereo not given), the TGI in the assay with HL-60(TB) leukemia, in the assay with MCF7 breast, in the assay on MDA-MB-435, in the assay with NCI-H23 lung and in the assay with SF-268 CNS was greater than 10 µM throughout.

The record behind these values is PubChem BioAssay (NCI).
